Experimental data published in patent publication US8058243B2, “Method for treating a brain cancer with ifenprodil” (HSC Research and Development Limited Partnership, priority 2006, dated 2011).
Where a name gives a salt, the structure may show the parent alone. Read-outs that look alike come from different tables or passages of the source.

Test system: murine neural precursor cells (neurosphere cultures)
Test: HTS of LOPAC library against secondary neurosphere cultures, MTT proliferation assay at 3 μM, day 7 (z score, P value)
Assay type: cell-based, mouse
[1] = LOPAC primary screen, neurosphere MTT proliferation, 3 μM, day 7
[2] = yes/no: significantly inhibited neurosphere proliferation (P<0.01) in primary screen
[3] = LOPAC library screen at 3 μM, secondary neurosphere cultures, MTT
[4] = yes/no: significantly inhibited neurosphere proliferation (P<0.01) in the primary screen
[5] = yes/no: significantly inhibited neurosphere proliferation in primary screen
[6] = primary LOPAC screen, 3 μM, MTT, neurosphere proliferation
[7] = yes/no: significantly inhibited neurosphere proliferation in the primary screen
[8] = LOPAC screen, neurosphere MTT proliferation, 3 μM, day 7
[9] = LOPAC library screen, 3 μM, MTT, neurosphere cultures
[10] = LOPAC library screen at 3 μM, MTT, secondary neurosphere cultures, screened in singlets
[11] = LOPAC library screen, 3 μM, MTT, secondary neurosphere cultures, day 7
[12] = yes = significantly inhibited neurosphere proliferation (P<0.01) in the primary screen

`COC(=O)[C@H](NC(=O)c1cc(-c2ccccc2)nc2ccccc12)c1ccccc1` [SB 218795] was tested, and the “Z Score” value was 1.359, the Z score [1] was 1.359 and the Activity [2] was “no”.

Piribedil maleate was tested, and the “Z Score” value [3] was −0.3345, the Z score [1] was −0.334 and the Activity [4] was “no”.

With `NC[C@@H]1O[C@H](O[C@H]2[C@@H](O)[C@H](O[C@@H]3[C@@H](O)[C@H](N)C[C@H](N)[C@H]3O[C@H]3O[C@H](CO)[C@@H](O)[C@H](O)[C@H]3N)O[C@@H]2CO)[C@H](N)[C@@H](O)[C@@H]1O.O=S(=O)(O)O` [Paramomycin sulfate] the Z score [1] was 0.821 and the Activity [5] was “no”.

With `Cc1ccc(S(=O)(=O)N[C@@H](Cc2ccccc2)C(=O)CCl)cc1` the “Z Score” value was 0.3367, the Z score [6] was 0.337 and the Activity [7] was “no”.

For `O=C(O)CCCc1ccc(N(CCCl)CCCl)cc1` [Chlorambucil], the “Z Score” value was 0.08078, the Z score [1] was 0.081 and the Activity [4] was “no”.

With `N[C@H](C(=O)O)c1cc(O)cc(O)c1` [(S)-3,5-Dihydroxyphenyglycine] the Z score [8] was −0.336 and the Activity [2] was “no”.

`Br.Br.N=C(N)SCCc1cccc(CCSC(=N)N)c1` [1,3-PBIT dihydrobromide] was tested, and the “Z Score” value was 2.221, the Z score [1] was 2.221 and the Activity [5] was “no”.

`C[N+](C)(C)CCOC(N)=O` [Carbachol] was tested, and the “Z Score” value [9] was −0.03381, the Z score [8] was −0.034 and the Activity [2] was “no”.

In the case of `CN/C(=N/CCSCc1nc[nH]c1C)NC#N` [Cimetidine], the “Z Score” value [10] is reported as 1.665, the Z score [8] is reported as 1.665 and the Activity [2] is reported as “no”.

In the case of `CNCC(O)c1ccc(O)cc1` (racemic) [(±)-Synephrine], the Z score [1] is reported as −0.149 and the Activity [5] is reported as “no”.

With `Oc1ccccc1O` [Pyrocatechol] the “Z Score” value was −2.053, the Z score [8] was −2.053 and the Activity [2] was “no”.

In the case of `N[C@@H]1CONC1=O` (racemic) [DL-Cycloserine], the “Z Score” value [3] is reported as −0.2986, the Z score [8] is reported as −0.299 and the Activity [2] is reported as “no”.

`COc1ccc(Cl)cc1C(=O)NCCc1ccc(S(=O)(=O)NC(=O)NC2CCCCC2)cc1` [Glibenclamide] was tested, and the “Z Score” value [3] was −0.36, the Z score [1] was −0.360 and the Activity [2] was “no”.

In the case of `CC(C)C[C@H](NP(=O)(O)O[C@@H]1O[C@@H](C)[C@H](O)[C@@H](O)[C@H]1O)C(=O)N[C@@H](Cc1c[nH]c2ccccc12)C(=O)O` [Phosphoramidon disodium], the “Z Score” value (168 h, 3 µM) is reported as −0.5097, the Z score (168 h, 3 µM) is reported as −0.510 and the Activity [5] is reported as “no”.

`CN(C)c1nc(N(C)C)nc(N(C)C)n1` [Altretamine] was tested, and the “Z Score” value [11] was −1.322, the Z score [6] was −1.322 and the Activity [7] was “no”.

For `C/C(O)=C(\C#N)C(=O)Nc1cc(Br)ccc1Br` [LFM-A13], the “Z Score” value was 4.5, the Z score [1] was 4.500 and the Activity [2] was “no”.

`CC(CCc1ccccc1)NCC(O)c1ccc(O)c(C(N)=O)c1` (stereo not drawn) [Labetalol hydrochloride] was tested, and the Activity was “no”, the “Z Score” value [3] was −1.097 and the Z score [1] was −1.097.

In the case of `CCCn1c(=O)c2[nH]c(-c3ccc(OCC(=O)NCCN)cc3)nc2n(CCC)c1=O` [Xanthine amine congener], the “Z Score” value [9] is reported as 0.001164, the Z score [6] is reported as 0.001 and the Activity [7] is reported as “no”.

With `COc1cc2c(c(OC)c1OC)-c1ccc(OC)c(=O)cc1[C@@H](NC(C)=O)CC2` [Colchicine] the Activity was “yes”, the “Z Score” value was −10.75 and the Z score was −10.753.

For `NCCC(=O)NCCc1c[nH]cn1` [Carcinine dihydrochloride], the “Z Score” value (168 h, 3 µM) was −1.023, the Z score (168 h, 3 µM) was −1.023 and the Activity [7] was “no”.

With `COc1cc(OC)c(C=C2C(O)=Nc3ccccc32)c(OC)c1` [IC 261] the “Z Score” value was −1.63, the Z score [1] was −1.630 and the Activity [5] was “no”.

For `CC(C)c1ccc2c(c1)c(SC(C)(C)C)c(CC(C)(C)C(=O)O)n2Cc1ccc(Cl)cc1` [MK-886], the “Z Score” value was −1.549, the Z score [1] was −1.549 and the Activity [12] was “no”.

For `CN(C)CCCN1c2ccccc2Sc2ccc(Cl)cc21` [Chlorpromazine hydrochloride], the “Z Score” value [9] was 0.7506, the Z score [1] was 0.751 and the Activity [4] was “no”.

For `CC(=O)O.O=C(NCC1CCCCN1)c1cc(OCC(F)(F)F)ccc1OCC(F)(F)F` (stereo not drawn) [Flecainide acelate], the Activity was “no” and the Z score [1] was −1.498.

`CCNC(=O)[C@H]1O[C@@H](n2cnc3c(NCc4ccccc4)ncnc32)[C@H](O)[C@@H]1O` [N6-Benzyl-5′-N-ethylcarboxamidoadenosine] was tested, and the “Z Score” value [3] was −0.7976, the Z score [8] was −0.798 and the Activity [2] was “no”.

`Nc1ccncc1` [4-Aminopyridine] was tested, and the “Z Score” value [11] was −1.516, the Z score [1] was −1.516 and the Activity [5] was “no”.

For `CN1CCN(C2=Nc3ccccc3Oc3ccc(Cl)cc32)CC1` [Loxapine succinate], the “Z Score” value was −0.7477, the Z score [1] was −0.748 and the Activity [2] was “no”.

With `NC(=O)C(=O)[O-].[Na+]` [Sodium Oxamate] the “Z Score” value (168 h, 3 µM) was 0.7449, the Z score (168 h, 3 µM) was 0.745 and the Activity [5] was “no”.

For `O=C(CCc1ccc(O)cc1)c1c(O)cc(O)cc1O` [Phloretin], the “Z Score” value (168 h, 3 µM) was 0.9165 and the Z score (168 h, 3 µM) was 0.916.

For `CC(C)C[C@H](NC(=O)[C@@H](O)[C@H](N)Cc1ccccc1)C(=O)O` [Bestatin hydrochloride], the “Z Score” value [9] was 0.6432, the Z score [8] was 0.643 and the Activity [2] was “no”.

With `CS(=O)(=O)O.Cc1c(C(=O)c2cccc3ccccc23)c2cccc3c2n1[C@H](CN1CCOCC1)CO3` [(R)-(+)-WIN 55,212-2 mesylate] the “Z Score” value was −0.6807, the Z score [6] was −0.681 and the Activity [7] was “no”.

For `C#CCOC(=O)C1=CCCN(C)C1` [Arecaidine propargyl ester hydrobromide], the “Z Score” value was −9.931, the Z score [1] was −9.931 and the Activity [4] was “yes”.

JL-18 was tested, and the “Z Score” value was −0.2861, the Z score [1] was −0.286 and the Activity [2] was “no”.

`O=C(O)/C=C\C(=O)O.O=[N+]([O-])c1ccc2nc(N3CCNCC3)ccc2c1` [Quipazine, 6-nitro-, maleate] was tested, and the “Z Score” value [9] was 0.9782, the Z score [1] was 0.978 and the Activity [5] was “no”.

For `Cc1nc(N=Nc2cc(S(=O)(=O)[O-])c3cc([N+](=O)[O-])cc(S(=O)(=O)[O-])c3c2)c(COP(=O)([O-])[O-])c(C=O)c1O.[Na+].[Na+].[Na+].[Na+]` [PPNDS tetrasodium], the “Z Score” value was −2.067, the Z score [1] was −2.067 and the Activity [5] was “no”.

In the case of `N=C(N)NC(=N)Nc1ccccc1` [1-Phenylbiguanide], the “Z Score” value (168 h, 3 µM) is reported as −2.689, the Z score (168 h, 3 µM) is reported as −2.689 and the Activity [4] is reported as “yes”.

In the case of `O=c1c(O)c(-c2ccc(O)cc2O)oc2cc(O)cc(O)c12` [Morin], the “Z Score” value (168 h, 3 µM) is reported as −2.216, the Z score (168 h, 3 µM) is reported as −2.216 and the Activity [12] is reported as “no”.

For `NC1C=CC=C(C(=O)O)C1` (racemic) [Gabaculine hydrochloride], the “Z Score” value was −2.256, the Z score [6] was −2.256 and the Activity [7] was “no”.

In the case of `O=C(O)c1cc2cc(F)ccc2[nH]1` [5-Fluoroindole-2-carboxylic acid], the “Z Score” value is reported as −0.007549 and the Z score is reported as −0.008.

For `O=C(O)Cc1ccccc1Nc1c(Cl)cccc1Cl` [Diclofenac sodium], the “Z Score” value [9] was 0.2988, the Z score [8] was 0.299 and the Activity [2] was “no”.

For `CC1=C(C)C(=O)C(CCCCC#CCCCC#CCO)=C(C)C1=O` [AA-861], the “Z Score” value [10] was 1.517 and the Z score [6] was 1.517.

With `N[C@H](C(=O)O)c1cc(O)no1` (racemic) [(±)-Ibotenic acid] the Z score [1] was −1.650 and the Activity [2] was “no”.

With `CN(C(=O)Cc1ccc(Cl)c(Cl)c1)C(CN1CCCC1)c1cccc(OCC(=O)O)c1.Cl` (stereo not drawn) [ICI 204,448 hydrochloride] the “Z Score” value was −0.3636, the Z score [1] was −0.364 and the Activity [2] was “no”.

With `CC[C@H](NC(=O)c1c(C)c(-c2ccccc2)nc2ccccc12)c1ccccc1` [SB 222200] the “Z Score” value was −1.695, the Z score [6] was −1.695 and the Activity [7] was “no”.

With `NCCNC(=O)Cc1ccc(NC(=O)Cc2ccc(Nc3ncnc4c3ncn4[C@@H]3O[C@H](CO)[C@@H](O)[C@H]3O)cc2)cc1` [Adenosine amine congener] the “Z Score” value [3] was −0.3345, the Z score [6] was −0.334 and the Activity [7] was “no”.

`CCCCCCCC/C=C\CCCCCCCC(=O)O` [Oleic acid] was tested, and the Z score [1] was −0.345 and the Activity [4] was “no”.

`CC[N+](C)(C)Cc1ccccc1Br` [Bretylium tosylate] was tested, and the Activity was “no”, the “Z Score” value [9] was −0.001709 and the Z score [8] was −0.002.

In the case of `O=C(O)/C=C\C(=O)O.O=C(O)/C=C\C(=O)O.c1cc(CN2CCCCC2)cc(OCCCNc2nc3ccccc3s2)c1` [SKF 95282 dimaleate], the Z score [6] is reported as 0.424 and the Activity [7] is reported as “no”.

With `C[C@@H](NC(=O)/C(C#N)=C/c1ccc(O)c(O)c1)c1ccccc1` [Tyrphostin AG 527] the “Z Score” value [11] was −1.607, the Z score [6] was −1.607 and the Activity [7] was “no”.

`CC(C)C[C@H]1C(=O)N2CCC[C@H]2[C@]2(O)O[C@](NC(=O)[C@@H]3C=C4c5cccc6[nH]c(Br)c(c56)C[C@H]4N(C)C3)(C(C)C)C(=O)N12.CS(=O)(=O)O` [(+)-Bromocriptine methanesulfonate] was tested, and the “Z Score” value was 0.02792, the Z score [6] was 0.028 and the Activity [7] was “no”.

`COC(=O)C1=C(C)NC(C)=C([N+](=O)[O-])C1c1ccccc1C(F)(F)F` (stereo not drawn) [(B1)-Bay K 8644] was tested, and the “Z Score” value was 0.8527.

With `Cl.Cl.NCCc1c[nH]cn1` [Histamine dihydrochloride] the Activity was “no”, the “Z Score” value was −1.476 and the Z score was −1.476.

For `CC1=C(C(=O)O)N2C(=O)[C@@H](NC(=O)[C@H](N)c3ccccc3)[C@H]2SC1` [Cephalexin hydrate], the “Z Score” value [11] was −3.966, the Z score [1] was −3.966 and the Activity [4] was “yes”.

For `Cc1nc2ccccn2c(=O)c1CCN1CCC(C(=O)c2ccc(F)cc2)CC1` [Pirenperone], the “Z Score” value [9] was 0.2279, the Z score [1] was 0.228 and the Activity [4] was “no”.
